In ChEMBL document CHEMBL1201862, “PubChem BioAssay data set” (2004):
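Five concentrations, 48 hours, 96-well plates. At the GI50, growth is halved.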 Activity calls are given as the source filed them. Cut-off read from the data, not from the text of the source: active = GI50 up to about 1.1 µM and inactive = higher.

Tests used:
Assay in all cases: growth of human tumour cells (NCI), 48 h
[1] = tested on: MDA-N
[2] = tested on: OVCAR-5
[3] = tested on: UACC-62
[4] = tested on: 786-0
[5] = tested on: IGROV-1
[6] = tested on: ACHN
[7] = tested on: SW-620
[8] = tested on: KM12
[9] = tested on: CCRF-CEM
[10] = tested on: LOX IMVI
[11] = tested on: U-251
[12] = tested on: SNB-19
[13] = tested on: SR
[14] = tested on: RXF 393
[15] = tested on: A549
[16] = tested on: Hs-578T
[17] = tested on: CAKI-1
[18] = tested on: EKVX
[19] = tested on: SF-539
[20] = tested on: Malme-3M

| SMILES | GI50 [1] | GI50 [2] | GI50 [3] | GI50 [4] | GI50 [5] | GI50 [6] | GI50 [7] | GI50 [8] | GI50 [9] | GI50 [10] | GI50 [11] | GI50 [12] | GI50 [13] | GI50 [14] | GI50 [15] | GI50 [16] | GI50 [17] | GI50 [18] | GI50 [19] | GI50 [20] |
| --- | --- | --- | --- | --- | --- | --- | --- | --- | --- | --- | --- | --- | --- | --- | --- | --- | --- | --- | --- | --- |
| CC(C)(C)OC(=O)NC1CCCC1C(O)(C1=CCCC1)C1=CCCC1 (stereo not given) | > 100 µM (inactive) | > 100 µM (inactive) | 51.9 µM (inactive) | > 100 µM (inactive) | > 100 µM (inactive) | > 100 µM (inactive) | > 100 µM (inactive) | > 100 µM (inactive) | > 100 µM (inactive) | > 100 µM (inactive) | > 100 µM (inactive) | > 100 µM (inactive) | > 100 µM (inactive) | > 100 µM (inactive) | > 100 µM (inactive) | > 100 µM (inactive) |  |  |  |  |
| COc1ccc(N2C(=O)C3c4[nH]c5ccccc5c4C4CCC(C(C)(C)C)CC4C3C2=O)c(C)c1 (stereo not given) | > 100 µM (inactive) |  | > 100 µM (inactive) | > 100 µM (inactive) | > 100 µM (inactive) | > 100 µM (inactive) | > 100 µM (inactive) | > 100 µM (inactive) | > 100 µM (inactive) |  | > 100 µM (inactive) | > 100 µM (inactive) | > 100 µM (inactive) | > 100 µM (inactive) | > 100 µM (inactive) | 51.3 µM (inactive) | > 100 µM (inactive) | > 100 µM (inactive) | > 100 µM (inactive) |  |
| COC(=O)CSC1CC(=O)c2c(Cl)sc(Cl)c21 (stereo not given) | > 100 µM (inactive) | > 100 µM (inactive) | > 100 µM (inactive) | > 100 µM (inactive) | > 100 µM (inactive) | > 100 µM (inactive) | > 100 µM (inactive) | > 100 µM (inactive) | > 100 µM (inactive) | > 100 µM (inactive) | > 100 µM (inactive) | > 100 µM (inactive) | 66.2 µM (inactive) | > 100 µM (inactive) | > 100 µM (inactive) | > 100 µM (inactive) | > 100 µM (inactive) | > 100 µM (inactive) |  | > 100 µM (inactive) |
| Cc1nc2ccc(Cl)cc2c(-n2ccnc2)c1CCn1ccnc1 | 25.5 µM (inactive) | 21.5 µM (inactive) | 16.3 µM (inactive) | 1.69 µM (inactive) | 26.1 µM (inactive) | 15.7 µM (inactive) | 39.4 µM (inactive) |  | 18 µM (inactive) | 21 µM (inactive) | 40.5 µM (inactive) | 53.7 µM (inactive) | 0.678 µM (active) | 14.1 µM (inactive) | 34.9 µM (inactive) | 12.9 µM (inactive) | 63.1 µM (inactive) |  | 61.4 µM (inactive) | 31.1 µM (inactive) |
| O=S(=O)(NNc1ccccc1)c1ccccc1 | 12.2 µM (inactive) | 17.1 µM (inactive) | 0.481 µM (active) | 52.6 µM (inactive) | 10.2 µM (inactive) | 0.662 µM (active) | 26.3 µM (inactive) | 1.66 µM (inactive) | 14.3 µM (inactive) | 0.834 µM (active) | 16.2 µM (inactive) | 39.7 µM (inactive) | 11.2 µM (inactive) | 7.73 µM (inactive) | 8.87 µM (inactive) | 61 µM (inactive) | 1.28 µM (inactive) | 14.4 µM (inactive) | 32.7 µM (inactive) |  |
| COc1ccc(-c2cc(-c3cc4cc(Br)ccc4nc3Cl)c(C#N)c(N)n2)cc1 | > 12.5 µM (inactive) | 10.7 µM (inactive) |  | > 12.5 µM (inactive) | > 12.5 µM (inactive) |  | > 12.5 µM (inactive) | > 12.5 µM (inactive) | > 12.5 µM (inactive) | > 12.5 µM (inactive) |  | > 12.5 µM (inactive) | 4.28 µM (inactive) | > 12.5 µM (inactive) | > 12.5 µM (inactive) | > 12.5 µM (inactive) | > 12.5 µM (inactive) | > 12.5 µM (inactive) | > 12.5 µM (inactive) | > 12.5 µM (inactive) |
| Brc1ccc2c3c1[C@@H]1O[C@@H]1c1cccc(c1-3)[C@@H]1O[C@H]21 | 17.6 µM (inactive) | 17.6 µM (inactive) | 17.2 µM (inactive) | 16.5 µM (inactive) |  | 22.1 µM (inactive) | 14.5 µM (inactive) | 16.9 µM (inactive) | 5.09 µM (inactive) | 2.21 µM (inactive) | 17.6 µM (inactive) | 22.3 µM (inactive) | > 100 µM (inactive) | 17.1 µM (inactive) | 26.1 µM (inactive) | 29.9 µM (inactive) | 13.1 µM (inactive) | 19.6 µM (inactive) | 2.32 µM (inactive) | 18.6 µM (inactive) |
| CC1(C)[C@@H]2C[C@H]1c1cnc(-c3ccccn3)cc1C2[C@@H]1c2cc(-c3ccccn3)ncc2[C@@H]2C[C@H]1C2(C)C (stereo not given in full) | > 100 µM (inactive) | > 100 µM (inactive) | 45 µM (inactive) | 86.1 µM (inactive) | 25.2 µM (inactive) | 40.5 µM (inactive) | 84.3 µM (inactive) | 33.3 µM (inactive) | 47.5 µM (inactive) | > 100 µM (inactive) | 36.1 µM (inactive) | 69.3 µM (inactive) | 62.8 µM (inactive) | > 100 µM (inactive) | 30.3 µM (inactive) | > 100 µM (inactive) | 70.5 µM (inactive) | > 100 µM (inactive) |  | 58.9 µM (inactive) |
| [N-]=[N+]=C(C(=O)N1CCCC1=O)S(=O)(=O)c1ccccc1 | 44 µM (inactive) |  | 70.6 µM (inactive) | 97.9 µM (inactive) | > 100 µM (inactive) | > 100 µM (inactive) | > 100 µM (inactive) | > 100 µM (inactive) | 80.7 µM (inactive) | 42.9 µM (inactive) | > 100 µM (inactive) | > 100 µM (inactive) | 87.7 µM (inactive) | 70.6 µM (inactive) | > 100 µM (inactive) | 29.4 µM (inactive) |  | > 100 µM (inactive) | 98.6 µM (inactive) | 28.3 µM (inactive) |
| CN1CCN(c2ccc3[nH]c(-c4ccc5[nH]c(-c6ccc(O)cc6)nc5c4)nc3c2)CC1 | 22.9 µM (inactive) | 473 µM (inactive) |  | 228 µM (inactive) | 117 µM (inactive) | 281 µM (inactive) | 102 µM (inactive) | 242 µM (inactive) |  | 85.5 µM (inactive) | 179 µM (inactive) | 391 µM (inactive) | 28.1 µM (inactive) | 130 µM (inactive) | 332 µM (inactive) | > 100 µM (inactive) | 105 µM (inactive) |  | 54.8 µM (inactive) | 2.64 µM (inactive) |
| COc1ccc(C2(CC(C)O)SCCCS2)cc1 (stereo not given) | > 100 µM (inactive) | > 100 µM (inactive) | > 100 µM (inactive) | > 100 µM (inactive) | > 100 µM (inactive) | > 100 µM (inactive) | > 100 µM (inactive) | > 100 µM (inactive) | 63.1 µM (inactive) |  | > 100 µM (inactive) | > 100 µM (inactive) | > 100 µM (inactive) | > 100 µM (inactive) | > 100 µM (inactive) | > 100 µM (inactive) | > 100 µM (inactive) | > 100 µM (inactive) | > 100 µM (inactive) | > 100 µM (inactive) |
| COc1ccc(CNc2nc3ccccc3nc2C(=O)O)cc1OC | > 100 µM (inactive) |  | > 100 µM (inactive) | > 100 µM (inactive) | > 100 µM (inactive) | > 100 µM (inactive) | > 100 µM (inactive) | > 100 µM (inactive) | > 100 µM (inactive) | > 100 µM (inactive) | 97.7 µM (inactive) |  | > 100 µM (inactive) | > 100 µM (inactive) | > 100 µM (inactive) | > 100 µM (inactive) | > 100 µM (inactive) | > 100 µM (inactive) | > 100 µM (inactive) | > 100 µM (inactive) |
| COc1cccc2c1-c1ccccc1[C@H](Nc1ccccc1)[C@@]2(C)O | 1.71 µM (inactive) | 11.6 µM (inactive) | 9.12 µM (inactive) | 5.45 µM (inactive) |  | 9.57 µM (inactive) | 4.35 µM (inactive) | 3.04 µM (inactive) | 1.42 µM (inactive) | 10.1 µM (inactive) | 4.84 µM (inactive) | 5.81 µM (inactive) | 0.865 µM (active) | 4.6 µM (inactive) | 7.5 µM (inactive) | 4.97 µM (inactive) | 4.1 µM (inactive) | 11 µM (inactive) | 2.77 µM (inactive) | 7.93 µM (inactive) |
| C=CCSc1nn(CC=C)cc2ncnc1-2 | > 100 µM (inactive) | > 100 µM (inactive) | > 100 µM (inactive) | > 100 µM (inactive) | > 100 µM (inactive) | > 100 µM (inactive) | > 100 µM (inactive) | > 100 µM (inactive) | > 100 µM (inactive) |  | > 100 µM (inactive) | > 100 µM (inactive) | > 100 µM (inactive) | > 100 µM (inactive) | > 100 µM (inactive) | > 100 µM (inactive) | > 100 µM (inactive) | > 100 µM (inactive) | > 100 µM (inactive) |  |
| CCOCc1c(C)cc(C)c(C2C(C(=O)c3ccccc3)N3c4ccccc4C=CC3C2(C#N)C(=O)OCC)c1C (stereo not given) | 27.4 µM (inactive) | 64.9 µM (inactive) | 31 µM (inactive) | 45 µM (inactive) | 10.6 µM (inactive) | 50.9 µM (inactive) | 67.3 µM (inactive) | 16.8 µM (inactive) | 56.4 µM (inactive) | 35.9 µM (inactive) | 85.7 µM (inactive) | > 100 µM (inactive) | 82.8 µM (inactive) | 46 µM (inactive) |  | > 100 µM (inactive) | 44 µM (inactive) | 16.1 µM (inactive) |  |  |
